Results taken from ChEMBL document CHEMBL1201862, “PubChem BioAssay data set” (2004).
Calls of active or inactive are those of the source.

How the values were obtained:
[1] = biological target: T1, Sentrin-specific protease 8 (Homo sapiens, UniProt Q96LD8); assay: SENP8 protease inhibitors, SAR follow-up, biochemical, luminescence (AID 504501); assay type: functional
T1 sequence (Q96LD8 whole entry): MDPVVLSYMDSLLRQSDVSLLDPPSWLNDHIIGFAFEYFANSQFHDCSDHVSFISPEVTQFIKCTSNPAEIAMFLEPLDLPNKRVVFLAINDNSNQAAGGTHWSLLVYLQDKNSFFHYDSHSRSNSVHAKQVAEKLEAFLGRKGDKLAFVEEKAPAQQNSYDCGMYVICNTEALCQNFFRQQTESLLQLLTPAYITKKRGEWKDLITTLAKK

[2] = biological target: T2, Caspase-3 (Homo sapiens, UniProt P42574); assay: SAR Analysis of small molecule inhibitors of Sentrin-specific proteases (SENPs) using a Caspase-3 Selectivity assay. [Related pubchem assays (depositor defined):AID2540, AID2599, AID434973, AID489001]; assay type: functional
T2 sequence (P42574 whole entry): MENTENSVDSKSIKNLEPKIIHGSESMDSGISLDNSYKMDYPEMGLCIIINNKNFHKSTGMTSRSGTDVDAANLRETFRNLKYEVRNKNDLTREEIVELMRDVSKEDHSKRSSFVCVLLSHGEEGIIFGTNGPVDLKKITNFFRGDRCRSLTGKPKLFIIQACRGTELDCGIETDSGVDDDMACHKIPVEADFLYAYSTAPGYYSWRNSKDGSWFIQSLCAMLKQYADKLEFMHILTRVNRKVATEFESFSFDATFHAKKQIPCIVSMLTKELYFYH

[3] = biological target: T3, Sentrin-specific protease 6 (Homo sapiens, UniProt Q9GZR1); assay: SAR Analysis of small molecule inhibitors of Sentrin-specific protease 6 (SENP6) using a Luminescent assay. [Related pubchem assays (depositor defined):AID2582, AID2599]; assay type: functional
T3 sequence (Q9GZR1 whole entry): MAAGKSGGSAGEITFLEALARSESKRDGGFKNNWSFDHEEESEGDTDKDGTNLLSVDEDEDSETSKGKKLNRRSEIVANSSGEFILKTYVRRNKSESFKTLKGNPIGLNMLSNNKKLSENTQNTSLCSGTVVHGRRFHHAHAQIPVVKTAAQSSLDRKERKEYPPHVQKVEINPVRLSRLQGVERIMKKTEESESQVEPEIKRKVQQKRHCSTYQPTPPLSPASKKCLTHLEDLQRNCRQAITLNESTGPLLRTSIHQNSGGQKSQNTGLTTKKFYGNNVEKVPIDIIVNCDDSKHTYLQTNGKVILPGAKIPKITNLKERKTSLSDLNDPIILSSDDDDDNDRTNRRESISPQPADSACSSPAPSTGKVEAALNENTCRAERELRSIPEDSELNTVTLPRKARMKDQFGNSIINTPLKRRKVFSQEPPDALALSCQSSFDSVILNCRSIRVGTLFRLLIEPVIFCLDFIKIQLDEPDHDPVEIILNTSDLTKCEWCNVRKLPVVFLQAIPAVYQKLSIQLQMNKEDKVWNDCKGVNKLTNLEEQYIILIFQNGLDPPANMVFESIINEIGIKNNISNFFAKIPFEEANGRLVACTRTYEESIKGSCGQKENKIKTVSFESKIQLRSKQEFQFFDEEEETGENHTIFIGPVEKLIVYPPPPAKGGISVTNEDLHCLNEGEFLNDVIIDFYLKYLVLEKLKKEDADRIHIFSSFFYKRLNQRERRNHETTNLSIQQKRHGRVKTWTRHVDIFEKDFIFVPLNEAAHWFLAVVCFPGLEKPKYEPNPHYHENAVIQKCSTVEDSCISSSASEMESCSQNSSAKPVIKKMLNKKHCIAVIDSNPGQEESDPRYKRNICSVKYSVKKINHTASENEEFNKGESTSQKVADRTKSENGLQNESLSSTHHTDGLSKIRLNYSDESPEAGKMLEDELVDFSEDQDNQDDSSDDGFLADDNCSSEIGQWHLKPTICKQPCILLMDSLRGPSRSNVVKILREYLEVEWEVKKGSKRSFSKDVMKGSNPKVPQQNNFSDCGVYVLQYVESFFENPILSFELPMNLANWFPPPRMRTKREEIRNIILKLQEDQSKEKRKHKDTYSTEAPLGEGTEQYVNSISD

[4] = biological target: T4, Sentrin-specific protease 7 (Homo sapiens, UniProt Q9BQF6); assay: SENP7 protease inhibitors, SAR follow-up, biochemical, luminescence (AID 504497); assay type: functional
T4 sequence (Q9BQF6 whole entry): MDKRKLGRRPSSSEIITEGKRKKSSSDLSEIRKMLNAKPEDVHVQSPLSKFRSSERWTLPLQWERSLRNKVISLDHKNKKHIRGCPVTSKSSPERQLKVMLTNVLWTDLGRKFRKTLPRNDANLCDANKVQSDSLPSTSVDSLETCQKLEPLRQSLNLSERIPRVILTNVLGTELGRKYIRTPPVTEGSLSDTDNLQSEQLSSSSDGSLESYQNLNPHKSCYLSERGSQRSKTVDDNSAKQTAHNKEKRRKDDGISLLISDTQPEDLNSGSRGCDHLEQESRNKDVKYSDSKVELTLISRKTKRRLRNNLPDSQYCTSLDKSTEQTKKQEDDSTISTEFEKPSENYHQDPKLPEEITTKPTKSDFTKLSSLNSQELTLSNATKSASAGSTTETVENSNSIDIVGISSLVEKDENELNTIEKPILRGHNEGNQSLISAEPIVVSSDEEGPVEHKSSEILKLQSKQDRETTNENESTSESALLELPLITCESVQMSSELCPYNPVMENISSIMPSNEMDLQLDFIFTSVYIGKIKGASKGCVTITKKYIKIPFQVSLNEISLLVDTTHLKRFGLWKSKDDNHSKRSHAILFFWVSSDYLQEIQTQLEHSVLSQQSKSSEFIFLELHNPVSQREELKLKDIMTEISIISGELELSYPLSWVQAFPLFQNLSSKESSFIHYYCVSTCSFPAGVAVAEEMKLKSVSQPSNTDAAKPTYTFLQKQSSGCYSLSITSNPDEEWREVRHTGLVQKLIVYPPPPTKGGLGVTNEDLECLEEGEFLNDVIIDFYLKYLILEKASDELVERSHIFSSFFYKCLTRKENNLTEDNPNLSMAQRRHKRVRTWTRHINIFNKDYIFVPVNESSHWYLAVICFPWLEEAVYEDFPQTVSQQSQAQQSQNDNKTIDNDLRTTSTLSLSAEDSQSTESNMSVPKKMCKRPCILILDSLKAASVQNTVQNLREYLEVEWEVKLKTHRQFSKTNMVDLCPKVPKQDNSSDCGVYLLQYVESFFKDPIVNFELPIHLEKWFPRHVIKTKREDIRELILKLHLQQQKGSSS

[5] = biological target: T5, Probable nicotinate-nucleotide adenylyltransferase (Staphylococcus aureus (strain N315), UniProt P65502); assay type: functional, Staphylococcus aureus subsp. aureus N315;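 for IC50 Mean: confirmatory dose-response retesting of NadD inhibitor hits first found in an ultra-high-throughput screen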
[6] = biological target: T5, Probable nicotinate-nucleotide adenylyltransferase; assay type: functional, Staphylococcus aureus subsp. aureus N315; settings: read-out: IC50_Mean
[7] = biological target: Protein Wnt-3a (Mus musculus, UniProt P27467); assay: Wnt3a-driven reporter signaling inhibition, dose response, selectivity assay for Gli-SUFU antagonist project, Wnt-LIGHT cells, luminescence (AID 651570); assay type: functional; settings: read-out: IC50_Mean;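 note: Wnt-LIGHT reporter cells stimulated with conditioned medium from Wnt3a-producing cells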
[8] = biological target: T6, Interleukin-8 (Homo sapiens, UniProt P10145); assay: Dose Response confirmation of uHTS small molecule hits for cystic fibrosis induced NFkb Inhibitors in a PAF-induced IL8 counterscreen.; assay type: functional; settings: read-out: IC50_Mean
T6 sequence (P10145 whole entry): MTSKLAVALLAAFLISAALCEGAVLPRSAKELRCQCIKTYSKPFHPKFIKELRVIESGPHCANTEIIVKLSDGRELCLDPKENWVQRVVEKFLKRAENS

[9] = tested on: Streptococcus sp. 'group A'; assay: growth inhibition of control SK(-) GAS strain, dose response, counter-screen for streptokinase expression inhibitor project, luminescence, kanamycin, BacTiterGlo, confirmation (AID 1900); assay type: functional, organism-based
[10] = biological target: Induced myeloid leukemia cell differentiation protein Mcl-1 (Homo sapiens, UniProt Q07820); assay type: functional
[11] = tested on: Streptococcus; assay: Group A Streptococcus viability loss, dose response, counter-screen for streptokinase expression inhibitor project, luminescence, BacTiterGlo (AID 1915); assay type: functional, organism-based;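 note: potency for reduction of bacterial viability or growth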
[12] = Luminescence Cell-Based Dose Retest to Confirm Inhibitors of Cancer Stem Cells. [Related pubchem assays (depositor defined):AID2717, AID2721]; assay type: functional; settings: Homo sapiens
[13] = biological target: DNA (cytosine-5)-methyltransferase 1 (Homo sapiens, UniProt P26358); assay: DNMT1 methyltransferase inhibitors, confirmation, biochemical, fluorescent molecular beacon (AID 602386); assay type: functional
[14] = biological target: T7, Aminopeptidase N (Plasmodium falciparum FcB1/Columbia, UniProt O96935); assay: P. falciparum M1AAP inhibitors, biochemical, fluorogenic H-Leu-NHMec substrate, 1536-well (AID 1445); parameters: species or system Plasmodium falciparum 3D7, 3D7
T7 sequence (O96935 whole entry): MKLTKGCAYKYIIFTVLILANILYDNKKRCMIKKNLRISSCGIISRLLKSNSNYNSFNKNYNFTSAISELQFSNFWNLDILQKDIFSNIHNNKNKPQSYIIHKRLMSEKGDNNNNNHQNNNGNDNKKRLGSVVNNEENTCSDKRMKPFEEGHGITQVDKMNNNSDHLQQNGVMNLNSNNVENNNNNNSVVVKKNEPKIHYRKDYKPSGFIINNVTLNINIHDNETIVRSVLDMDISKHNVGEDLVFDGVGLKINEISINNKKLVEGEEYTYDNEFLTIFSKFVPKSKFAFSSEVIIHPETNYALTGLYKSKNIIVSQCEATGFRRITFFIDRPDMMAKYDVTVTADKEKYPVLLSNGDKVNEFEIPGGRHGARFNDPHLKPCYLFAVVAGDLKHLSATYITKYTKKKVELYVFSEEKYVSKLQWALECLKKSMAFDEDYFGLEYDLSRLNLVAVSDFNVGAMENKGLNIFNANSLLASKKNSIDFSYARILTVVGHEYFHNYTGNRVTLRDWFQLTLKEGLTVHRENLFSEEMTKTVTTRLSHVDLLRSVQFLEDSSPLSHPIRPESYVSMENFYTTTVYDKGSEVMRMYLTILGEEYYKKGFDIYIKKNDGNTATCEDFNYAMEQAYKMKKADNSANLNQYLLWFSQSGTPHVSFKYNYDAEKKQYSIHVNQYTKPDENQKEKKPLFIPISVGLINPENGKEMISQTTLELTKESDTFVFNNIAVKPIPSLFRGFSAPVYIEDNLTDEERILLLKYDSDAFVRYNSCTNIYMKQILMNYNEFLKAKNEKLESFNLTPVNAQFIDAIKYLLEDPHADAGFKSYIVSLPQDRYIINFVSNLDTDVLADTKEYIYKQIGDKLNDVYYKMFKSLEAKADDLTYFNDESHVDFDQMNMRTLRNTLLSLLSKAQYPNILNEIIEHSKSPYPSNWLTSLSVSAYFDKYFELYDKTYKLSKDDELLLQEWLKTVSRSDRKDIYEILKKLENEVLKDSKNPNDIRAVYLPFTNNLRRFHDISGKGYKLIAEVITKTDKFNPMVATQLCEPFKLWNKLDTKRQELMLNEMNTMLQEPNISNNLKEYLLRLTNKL

[15] = biological target: T8, Estrogen receptor beta (Homo sapiens, UniProt Q92731);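 note: recombinant ER-beta bound to coactivator SRC1 peptide in presence of estradiol agonist; inhibitors block coactivator peptide binding and lower the FRET signal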
[16] = biological target: T8, Estrogen receptor beta; assay: ERβ–SRC-3 coactivator interaction inhibitors, confirmation, orthogonal assay, biochemical, ELISA, streptavidin-HRP readout (AID 1060)
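Throughout, for AC50: cells exposed to compound for roughly 70 hours or longer before luminescence read.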

T5 sequence (P65502 whole entry): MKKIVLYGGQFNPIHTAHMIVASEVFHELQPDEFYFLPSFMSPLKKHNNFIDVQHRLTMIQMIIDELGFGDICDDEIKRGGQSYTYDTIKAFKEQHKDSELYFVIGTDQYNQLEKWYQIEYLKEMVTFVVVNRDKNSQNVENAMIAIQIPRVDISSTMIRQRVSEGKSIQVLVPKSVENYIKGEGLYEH
T8 sequence (Q92731 whole entry): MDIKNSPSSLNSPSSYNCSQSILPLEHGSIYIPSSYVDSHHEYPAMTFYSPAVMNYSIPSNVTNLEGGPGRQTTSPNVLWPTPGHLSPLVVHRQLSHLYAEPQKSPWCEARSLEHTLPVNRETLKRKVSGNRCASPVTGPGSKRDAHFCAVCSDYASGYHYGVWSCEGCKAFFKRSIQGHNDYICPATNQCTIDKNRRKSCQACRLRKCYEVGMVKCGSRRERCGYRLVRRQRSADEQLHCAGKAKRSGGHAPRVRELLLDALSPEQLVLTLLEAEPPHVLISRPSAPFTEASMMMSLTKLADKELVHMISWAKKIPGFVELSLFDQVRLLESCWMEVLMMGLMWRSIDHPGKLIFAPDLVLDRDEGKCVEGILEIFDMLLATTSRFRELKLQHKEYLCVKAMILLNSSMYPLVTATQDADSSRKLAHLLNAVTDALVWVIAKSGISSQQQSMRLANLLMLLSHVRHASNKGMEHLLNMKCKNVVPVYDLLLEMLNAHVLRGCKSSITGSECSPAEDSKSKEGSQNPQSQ
Sequence of DNA (cytosine-5)-methyltransferase 1 (P26358 whole entry): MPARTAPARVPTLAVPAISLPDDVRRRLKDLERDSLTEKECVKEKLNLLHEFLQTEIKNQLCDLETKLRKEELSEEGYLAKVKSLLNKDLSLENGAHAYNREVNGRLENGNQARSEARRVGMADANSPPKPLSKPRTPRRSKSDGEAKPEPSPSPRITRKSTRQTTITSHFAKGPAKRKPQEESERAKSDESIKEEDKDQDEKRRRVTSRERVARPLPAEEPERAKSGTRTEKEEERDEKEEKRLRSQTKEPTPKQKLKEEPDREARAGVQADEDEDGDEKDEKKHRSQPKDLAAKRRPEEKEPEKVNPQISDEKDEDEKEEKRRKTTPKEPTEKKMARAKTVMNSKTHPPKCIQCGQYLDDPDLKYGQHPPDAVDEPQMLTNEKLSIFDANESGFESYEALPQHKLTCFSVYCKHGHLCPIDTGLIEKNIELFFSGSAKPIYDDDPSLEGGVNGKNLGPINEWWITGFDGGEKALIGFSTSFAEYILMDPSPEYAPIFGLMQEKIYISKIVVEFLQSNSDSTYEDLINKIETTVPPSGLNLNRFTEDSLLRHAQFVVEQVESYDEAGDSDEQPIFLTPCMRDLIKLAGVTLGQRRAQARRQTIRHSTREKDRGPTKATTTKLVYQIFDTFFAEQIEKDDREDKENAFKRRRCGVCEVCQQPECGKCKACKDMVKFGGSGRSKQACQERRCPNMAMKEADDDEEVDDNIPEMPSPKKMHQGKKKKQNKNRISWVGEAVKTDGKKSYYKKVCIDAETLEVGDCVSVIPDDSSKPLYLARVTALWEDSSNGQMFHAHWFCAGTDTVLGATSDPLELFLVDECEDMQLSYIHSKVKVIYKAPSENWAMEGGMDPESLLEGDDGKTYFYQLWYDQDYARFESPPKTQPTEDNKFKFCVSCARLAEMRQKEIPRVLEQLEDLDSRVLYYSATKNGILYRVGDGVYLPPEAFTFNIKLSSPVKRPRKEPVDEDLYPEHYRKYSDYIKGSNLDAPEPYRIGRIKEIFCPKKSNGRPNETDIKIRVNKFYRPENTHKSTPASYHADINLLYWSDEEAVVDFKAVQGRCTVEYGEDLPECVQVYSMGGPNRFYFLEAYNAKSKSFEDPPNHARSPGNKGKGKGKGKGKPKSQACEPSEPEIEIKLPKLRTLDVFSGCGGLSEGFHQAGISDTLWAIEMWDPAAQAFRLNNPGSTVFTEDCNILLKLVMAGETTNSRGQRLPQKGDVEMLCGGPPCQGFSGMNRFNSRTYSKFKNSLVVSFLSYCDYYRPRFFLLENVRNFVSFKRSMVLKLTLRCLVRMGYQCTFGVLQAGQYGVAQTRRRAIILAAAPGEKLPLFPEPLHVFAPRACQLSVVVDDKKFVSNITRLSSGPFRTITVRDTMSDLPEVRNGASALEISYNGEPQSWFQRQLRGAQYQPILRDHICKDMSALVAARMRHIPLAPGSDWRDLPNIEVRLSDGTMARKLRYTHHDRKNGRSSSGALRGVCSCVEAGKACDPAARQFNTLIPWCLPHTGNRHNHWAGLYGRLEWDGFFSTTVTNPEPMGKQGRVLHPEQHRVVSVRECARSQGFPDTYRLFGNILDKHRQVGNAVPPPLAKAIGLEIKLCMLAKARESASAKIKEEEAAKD
Sequence of Induced myeloid leukemia cell differentiation protein Mcl-1 (Q07820 whole entry): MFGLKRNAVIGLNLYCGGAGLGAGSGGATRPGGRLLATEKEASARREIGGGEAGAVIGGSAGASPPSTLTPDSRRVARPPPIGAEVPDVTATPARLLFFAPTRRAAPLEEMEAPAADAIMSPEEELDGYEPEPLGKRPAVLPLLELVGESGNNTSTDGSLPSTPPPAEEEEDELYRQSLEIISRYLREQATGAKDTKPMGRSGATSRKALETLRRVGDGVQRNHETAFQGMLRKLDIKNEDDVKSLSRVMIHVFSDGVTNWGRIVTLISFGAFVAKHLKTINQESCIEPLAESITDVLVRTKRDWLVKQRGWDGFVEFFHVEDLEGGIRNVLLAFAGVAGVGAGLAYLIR
Sequence of Protein Wnt-3a (P27467 whole entry): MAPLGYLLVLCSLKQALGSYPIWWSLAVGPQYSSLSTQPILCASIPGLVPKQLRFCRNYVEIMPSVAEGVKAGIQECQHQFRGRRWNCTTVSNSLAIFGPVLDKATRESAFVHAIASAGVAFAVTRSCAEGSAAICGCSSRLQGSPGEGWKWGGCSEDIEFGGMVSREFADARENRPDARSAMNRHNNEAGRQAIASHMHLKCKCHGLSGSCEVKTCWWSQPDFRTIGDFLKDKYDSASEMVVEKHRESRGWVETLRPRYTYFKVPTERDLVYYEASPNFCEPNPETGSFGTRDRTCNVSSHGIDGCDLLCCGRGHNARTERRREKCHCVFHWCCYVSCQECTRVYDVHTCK

Structure (SMILES): CCOc1ccc2nc(NC(=O)c3ccc(NS(=O)(=O)c4cccs4)cc3)sc2c1
- IC50 [1]: > 99 µM (inactive)
- IC50 [2]: > 99 µM (inactive)
- IC50 [3]: > 99 µM (inactive)
- IC50 [4]: 46.5 µM (active)

Structure (SMILES): Oc1ccc(Nc2nc(-c3cccs3)cs2)cc1
- IC50 [5]: 14.3 µM (active)
- IC50 [6]: 28.3 µM (active)

Structure (SMILES): O=C(Nc1nc2ccc(NS(=O)(=O)c3ccc(Cl)s3)cc2s1)c1ccccc1
- IC50 [1]: 3.34 µM (active)
- IC50 [2]: 12 µM (active)
- IC50 [3]: 2.95 µM (active)
- IC50 [4]: 2.65 µM (active)

Structure (SMILES): O=C(Nc1ccccc1)C1=C[C@@H](C2CCCCC2)C[C@@H](OCCCCO)O1
- IC50 [7]: 47.7 µM (inactive)

Structure (SMILES): CCCCOCCCNC(=O)CNC(=O)c1sc2ccccc2c1Cl
- IC50 [1]: > 99 µM (inactive)
- IC50 [2]: > 99 µM (inactive)
- IC50 [3]: > 99 µM (inactive)
- IC50 [4]: > 99 µM (inactive)

Structure (SMILES): CC1=C(C(=O)OCc2ccc3c(c2)OCO3)C(c2cccc([N+](=O)[O-])c2)NC(=O)N1 (stereo unspecified)
- IC50 [8]: > 79 µM (inactive)

Structure (SMILES): COc1ccc(/C=C2/C(=O)N(c3nc4ccccc4s3)N=C2CSc2ccc(Cl)cc2)cc1
- EC50 [9]: 0.647 µM (active)
- IC50 [10]: 1.69 µM (active)
- EC50 [11]: 3.65 µM (active)
- AC50 [12]: 3.01 µM (active)
- IC50 [13]: 2.86 µM (active)

Structure (SMILES): Cc1oc2c(cc(NS(=O)(=O)c3ccc4c5c(cccc35)C(=O)N4)c3ccccc32)c1C(=O)OC(C)C
- IC50 [14]: 36.7 µM (active)
- IC50 [15]: 34.8 µM (not active)
- IC50 [16]: 0.706 µM (not active)
- IC50 [5]: 28.6 µM (active)
- IC50 [6]: 63.2 µM (active)
